From paper PMC3441724, “Mechanistic Insights into Validoxylamine A 7'-Phosphate Synthesis by VldE Using the Structure of the Entire Product Complex” (PLoS ONE, 2012)

Key:
VldE = target: T1, VldE (Streptomyces hygroscopicus, UniProt Q15JG1); test: X-ray crystal structure; format: binding; settings: ternary complex with GDP, pH 8.0, open conformation
T1 construct: (His)6-tagged full-length protein, 497 residues per monomer, expressed in E. coli BL21(DE3) pLysS; homodimer; residues 1, 2 and 482-497 not modelled
T1 sequence (Q15JG1 1-497): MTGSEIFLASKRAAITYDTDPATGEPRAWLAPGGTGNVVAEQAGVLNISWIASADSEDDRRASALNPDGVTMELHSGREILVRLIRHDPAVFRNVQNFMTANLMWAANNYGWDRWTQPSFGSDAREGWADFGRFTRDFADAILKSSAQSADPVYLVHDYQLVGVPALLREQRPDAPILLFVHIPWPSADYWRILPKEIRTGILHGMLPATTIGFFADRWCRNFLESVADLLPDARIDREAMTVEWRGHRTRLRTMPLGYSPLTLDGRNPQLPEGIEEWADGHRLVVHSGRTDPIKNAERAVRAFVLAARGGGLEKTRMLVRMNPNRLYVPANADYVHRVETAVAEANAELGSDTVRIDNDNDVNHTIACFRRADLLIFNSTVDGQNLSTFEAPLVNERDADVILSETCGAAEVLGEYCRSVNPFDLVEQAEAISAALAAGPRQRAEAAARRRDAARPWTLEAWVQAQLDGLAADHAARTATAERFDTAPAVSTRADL

[1] = target: the molecule itself; test: crystal structure; sitting drop vapor diffusion, 293 K, Tris-HCl pH 8.0 with polyethylene glycol 3,350; two monomers modeled within the asymmetric unit (apo, GDP, GDP+VDO), six monomers in VldE•GDP•TRE

OC[C@H]1O[C@H](O[C@H]2O[C@H](CO)[C@@H](O)[C@H](O)[C@H]2O)[C@H](O)[C@@H](O)[C@@H]1O [TRE, trehalose]
X-ray crystal structure (VldE; 2.81 Å, 3% trehalose, 1 mM GDP, 20 mM MgCl2, cyclitol binding sites, bound in two of six monomers): structure of VldE in complex with both GDP and trehalose (VldE•GDP•TRE)

O=P(O)(O)OC[C@H]1C[C@H](N[C@H]2C=C(CO)[C@@H](O)[C@H](O)[C@H]2O)[C@H](O)[C@@H](O)[C@@H]1O [VDO, validoxylamine A 7′-phosphate]
X-ray crystal structure (VldE; 2.11 Å, crystal soaked with 5 mM GDP and 10 mM VDO, cyclitol (donor and acceptor) sites): The first crystallographic structure of VldE in complex with the entirety of its products

B1: VldE from S. hygroscopicus subsp. limoneus (enzyme)
chain: T1 sequence (Q15JG1 1-497)
notes: VldE, pseudo-glycosyltransferase of Streptomyces hygroscopicus subsp. limoneus; 994 possible residues for two monomers (497 each); the apo model lacks residues 1, 2 and 482-497; also called pseudo-glycosyltransferase VldE; (His)6-tagged VldE
binding result [1]: binds
